What all share (assay): NCI-60 cell line screen, 48 h
Test [1] concerns LOX IMVI melanoma.
Test [2] deals with HCT-116 colon.
For test [3], the system named is KM12 colon.
Test [4] relates to HOP-92 NSCLC.
Test [5] relates to MOLT-4 leukemia.
Test [6] deals with 786-0 renal.
Test [7] deals with NCI-H226 lung.
Test [8] relates to UACC-62 melanoma.
Test [9] deals with K-562 leukemia.
Test [10] has as its system UO-31 renal.

Molecules are shown by their SMILES. Where “and” joins values, the source holds several entries; their conditions need not be identical. Equal values may be shown once.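 These data come from cells grown in 96-well plates and exposed to compound for 48 hours at five concentrations. GI50: concentration for 50% inhibition of growth. TGI denotes the concentration required for complete inhibition of growth.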

In the case of `COc1ccc(-c2nsc3c2NC(=O)CC3c2cccc(F)c2)cc1` (centres undefined), the GI50 in [1] was 6.5 µM; in [2], 4.14 µM; in test [3], 2.48 µM; in [4] it was 3.57 µM; in test [5], 5 µM; in [6], 8.22 µM. Moreover, the GI50 in test [7] was 6.74 µM; in test [8] it was 4.35 µM; in test [9], 2.65 µM; in [10], over 100 µM. Moreover, the TGI in test [1] is over 100 µM; in [2] it was over 100 µM; in [3], over 100 µM; in test [4] it was 40.6 µM; in test [5], over 100 µM; in test [6] it was over 100 µM. Further, the TGI in test [7], in test [8], in test [9] and in test [10] was over 100 µM in each case.

Turning to `CC1(C)C2=CCCC(=O)[C@@]2(C)CC[C@@H]1O`, the TGI in test [1], in test [2], in test [3], in test [4], in test [5] and in test [6] was over 100 µM throughout. Besides, the TGI in [7], in test [8], in test [9] and in test [10] was over 100 µM in each case.

Turning to `O=c1oc2ccc(I)cc2c(=O)n1-c1ccc(I)cc1F`, the GI50 was 0.532 µM in test [1]; 0.472 µM in [2]; 2.2 µM in test [3]; 0.169 µM in test [4]; 1.35 µM in test [5]; 2.21 µM in [6]. In addition, the GI50 was 1.47 µM in test [7], 0.279 µM in test [8], 0.436 µM in test [9] and 0.268 µM in test [10]. Moreover, the TGI in test [1] came to 4.66 µM; in test [2], 2.27 µM; in [3], 5.23 µM; in test [4], 0.544 µM; in test [5], 4.94 µM; in test [6], 6.49 µM. Besides, the TGI in test [7] is 5.88 µM; in test [8], 1.11 µM; in [9], over 100 µM; in test [10], 2.41 µM.

For `CN(C)C[C@@H]1CCn2cc(c3ccccc32)C2=C(C(=O)NC2=O)c2cn(c3ccccc23)CCO1`, the GI50 was 1.63 µM in [1]; 0.374 µM in test [2]; 1.82 µM in test [3]; 0.446 µM in test [4]; 1.95 µM in [5]; 1.78 µM in test [6]. Besides, the GI50 was 2 µM in test [7], 0.792 µM in test [8], 0.916 µM in [9] and 0.539 µM in test [10]. Besides, the TGI in [1] is 3.44 µM; in test [2], 1.56 µM; in [3] it was over 10 µM; in test [4] it was 6.31 µM; in [5] it was 5.59 µM; in test [6] it was 3.93 µM. The TGI in test [7] was over 10 µM; in [8] it was over 10 µM; in test [9], 3.37 µM; in test [10] it was 3.23 µM.

On to `CN(C)c1ccc2cc3c(cc2c1)Oc1ccccc1N3.[Cl][Zn][Cl]`, for which the GI50 in test [1] was 1.6 µM; in [2], 2.04 µM; in [3] it was 13.2 µM; in [4], 2.59 µM; in test [5], 3.1 µM; in [6] it was 2.85 µM. Also, the GI50 in test [7] was 1.73 µM; in [8] it was 3.43 µM; in [9], 3.05 µM; in test [10], 1.44 µM. In addition, the TGI in test [1] was found to be 3.22 µM; in [2], 4.34 µM; in test [3] it was 29.1 µM; in [4] it was 8.33 µM; in [5], 16.2 µM; in test [6] it was 9.48 µM. Also, the TGI was 4.07 µM in test [7], 13.4 µM in test [8], over 100 µM in test [9] and 3.3 µM in test [10].

For `O=C(O)CC(S)C(=O)O.[Li+].[Sb]` (centres undefined), the GI50 was 47.1 µM in test [1]; over 100 µM in test [2]; over 100 µM in [3]; over 100 µM in [4]; 64.8 µM in [5]; over 100 µM in test [6]. Also, the GI50 is over 100 µM in test [7], over 100 µM in test [8], 85.3 µM in test [9] and over 100 µM in test [10]. For the same compound, the TGI in test [1], in test [2], in test [3], in [4], in test [5] and in test [6] was over 100 µM in each case. The TGI in [7], in test [8], in test [9] and in [10] was over 100 µM each time.

Regarding `CC(=O)CCn1[nH]c(=O)c(Cl)c(Cl)c1=O`, the TGI in test [1], in [2], in [3], in test [4], in test [5] and in [6] was over 100 µM each time. The TGI in test [7], in test [8], in [9] and in [10] was over 100 µM each time.

In the case of `CCc1nc(N)nc(N)c1-c1ccc(N(C)Cc2ccccc2)c([N+](=O)[O-])c1`, the TGI is 22.2 µM in test [1]; 10 µM in test [2]; 16.3 µM in test [3]; 18.7 µM in test [4]; 8.11 µM in test [5]; 30.3 µM in test [6]. Besides, the TGI in test [7] stood at 23.2 µM; in [8] it was 13 µM; in test [9] it was 3.98 µM; in test [10] it was 16 µM.

`CN(CCCCCCCCNc1ccnc2ccccc12)Cc1ccc(-c2ccc(-c3ccc(C#N)cc3)s2)cc1`: the GI50 in test [1] is 0.164 µM; in [2] it was 0.184 µM; in test [3] it was 0.667 µM; in test [4], 0.337 µM; in test [5], 0.368 µM; in [6], 1.4 µM. For the same compound, the GI50 in [7] is 1.17 µM; in [8], 1.53 µM; in [9], 0.0172 µM; in test [10], 1.23 µM. Moreover, the TGI was determined as 0.31 µM in [1]; 0.537 µM in [2]; 2.17 µM in [3]; 2.53 µM in test [4]; 2.51 µM in test [5]; 3.25 µM in test [6]. For the same compound, the TGI in [7] stood at 3.17 µM; in [8], 2.92 µM; in test [9], 0.107 µM; in [10] it was 2.57 µM.

Consider `Cc1c(C(=O)/C=C/c2ccc(Cl)cc2)nnn1-c1ccnc2c(C(F)(F)F)cccc12`, for which the GI50 was 23.3 µM in test [1]; 25.6 µM in [2]; 77.1 µM in test [3]; 18.4 µM in test [4]; 19.3 µM in test [5]; 45.6 µM in [6]. In addition, the GI50 in [7] was 22.6 µM; in test [8], 26.5 µM; in test [9], 8.67 µM; in test [10], 33.5 µM. The TGI in test [1] was over 100 µM; in test [2] it was over 100 µM; in [3], over 100 µM; in test [4], 60.6 µM; in test [5] it was 68.3 µM; in [6], over 100 µM. Also, the TGI in test [7], in test [8], in test [9] and in test [10] was over 100 µM each time.

As to `CCCCCCCCCCCCCP(=O)(OC)OC`, the TGI in [1] turned out to be 35.3 µM; in test [2] it was 33.8 µM; in test [3], 31.9 µM; in test [4] it was 35 µM; in test [5], 36.5 µM; in [6] it was 33.7 µM. Further, the TGI in [7] was determined as 35.9 µM; in test [8], 32.2 µM; in [9] it was 45.2 µM; in test [10] it was 29.8 µM.

For the compound `COc1ccc2[nH]cc(C3(c4c[nH]c5ccc(OC)cc45)C(=O)Nc4ccc(Cl)cc43)c2c1`, the GI50 is 2.16 µM in test [1]; 3.63 µM in test [2]; 2.52 µM in [3]; 2.2 µM in [4]; 4.12 µM in [5]; 4.43 µM in test [6]. In addition, the GI50 in [7] was 3.38 µM; in test [8], 3.61 µM; in test [9], 3.69 µM; in [10], 2.27 µM. In addition, the TGI in test [1] stood at 5.33 µM; in test [2], 10.7 µM; in test [3], 6.33 µM; in [4], 10.3 µM; in [5] it was 21.1 µM; in test [6], 83.9 µM. Besides, the TGI was 30 µM in test [7], over 100 µM in test [8], over 100 µM in test [9] and over 100 µM in test [10].

For the compound `CC(C)c1ccc(C(c2c(O)c3ccccc3oc2=O)c2c(O)c3ccccc3oc2=O)cc1`, the TGI in test [1] is 33 µM; in test [2], 33.2 µM; in [3] it was 40.4 µM; in test [4], 21.2 µM; in test [5] it was 21.9 µM; in [6], 40.9 µM. For the same compound, the TGI came out at 42.2 µM in [7], 31.2 µM in test [8], 51.4 µM in [9] and 28.4 µM in test [10].

As to `CN(CO)c1nc(N(C)CO)nc(N(C)CO)n1`, the GI50 was 16.2 µM in test [1]; 21.7 µM and 11.7 µM in [2]; 29.9 µM and 27.3 µM in test [4]; 23.5 µM in [5]; 29.6 µM in [6]; 24.8 µM and 9.99 µM in [7]. Also, the GI50 in test [8] is 17.2 µM; in test [9], 27.2 µM; in test [10], 27.6 µM. Moreover, the TGI in test [1] is 36.6 µM and 26.8 µM; in [2], 53.2 µM and 47.3 µM; in [3] it was 47.7 µM and 31.8 µM; in test [4] it was 64.9 µM and 64.1 µM; in test [5], 77 µM and 128 µM; in test [6] it was 56.9 µM and 105 µM. Besides, the TGI was > 70.3 µM and 21.4 µM in test [7]; 33.8 µM and 25.4 µM in test [8]; 140 µM in test [9]; 50.3 µM and 56.2 µM in test [10].

In the case of `COC(=O)/C=C(C)/C=C/c1c(C)c(C(C)=O)c(C)n1C`, the TGI in test [1] is over 100 µM; in test [2], over 100 µM; in test [3], over 100 µM; in [4], 92.8 µM; in test [5], over 100 µM; in test [6] it was over 100 µM. Besides, the TGI in [7], in test [8], in test [9] and in test [10] was over 100 µM throughout.

With `CN1CCN(C(=O)[C@@]2(C)CC[C@]3(C)CC[C@]4(C)C(=CC[C@@H]5[C@@]6(C)CC[C@H](OC(=O)c7cccnc7)C(C)(C)[C@@H]6CC[C@]54C)[C@@H]3C2)CC1`, the GI50 in test [1] is 1.65 µM; in [2] it was 1.48 µM; in test [3], 1.9 µM; in test [4] it was 1.38 µM; in test [5] it was 1.92 µM; in test [6], 1.75 µM. In addition, the GI50 in test [7] is 10.2 µM; in [8] it was 1.84 µM; in test [9] it was 2.15 µM; in test [10] it was 1.43 µM. In addition, the TGI in test [1] is 3.06 µM; in [2] it was 2.87 µM; in test [3], 3.64 µM; in test [4], 3.2 µM; in [5], 4.78 µM; in [6] it was 3.22 µM. Further, the TGI in test [7] stood at 24 µM; in [8], 3.46 µM; in test [9] it was 6.36 µM; in test [10], 2.86 µM.

Regarding `O=C1CS(=O)c2ccccc2N1` (centres undefined), the TGI in test [1], in [2], in [3], in test [4], in test [5] and in test [6] was over 100 µM each time. Further, the TGI in [7], in test [8], in test [9] and in test [10] was over 100 µM throughout.

With `CCN(CC)CCOc1ccc(NC(=O)C(C(C)C)N2C(=O)/C(=C/c3ccc(Br)cc3)SC2=S)cc1` (centres undefined), the GI50 was 1.75 µM in test [1]; 1.86 µM in test [2]; 3.19 µM in [3]; 2.53 µM in [4]; 2.68 µM in test [5]; 1.76 µM in test [6]. Besides, the GI50 in [7] was 16.2 µM; in test [8], 1.81 µM; in [9], 2.24 µM; in test [10], 2.72 µM. Moreover, the TGI in [1] is 3.23 µM; in [2] it was 3.47 µM; in test [3], 11.3 µM; in test [4] it was 13.5 µM; in test [5], 9.38 µM; in test [6], 3.22 µM. In addition, the TGI amounted to 37.3 µM in test [7], 3.53 µM in [8], 5.86 µM in test [9] and 12.6 µM in test [10].

The values are drawn from PubChem BioAssay (NCI).
